Data on 16 compounds can be found in ChEMBL document CHEMBL2062407, “Synthesis of N²-modified 7-methylguanosine 5'-monophosphates as nematode translation inhibitors” (Bioorg Med Chem, 2012).

The structures appear in SMILES notation. Some results are limits rather than exact numbers.

The first assay deals with Ascaris suum. In words: Ratio of m7GTP IC50 to compound IC50 for Ascaris suum eIF4E-3 assessed as inhibition of cap-dependent translation after 1 hr by cell-free Renilla luciferase reporter gene assay.
As for `COc1ccc(CNc2nc3c(c(=O)[nH]2)[n+](C)cn3[C@@H]2O[C@H](COP(=O)([O-])O)[C@@H](O)[C@H]2O)cc1`, the Ratio IC50 was found to be 7.

System in another assay: not listed separately
Kind of assay: Inhibition of Ascaris suum eIF4E-3 assessed as inhibition of cap-dependent translation after 1 hr by cell-free Renilla luciferase reporter gene assay. Background: Reporter assays use an easily measured gene product as a stand-in for the process of interest.
Regarding `CC(C)CNc1nc2c(c(=O)[nH]1)[n+](C)cn2[C@@H]1O[C@H](COP(=O)([O-])O)[C@@H](O)[C@H]1O`, the IC50 is 4.5 µM.
On to `C[n+]1cn([C@@H]2O[C@H](COP(=O)([O-])O)[C@@H](O)[C@H]2O)c2nc(NCC3CCCCC3)[nH]c(=O)c21`, for which the IC50 was found to be 5.7 µM.
With `C[n+]1cn([C@@H]2O[C@H](COP(=O)([O-])O)[C@@H](O)[C@H]2O)c2nc(NCc3ccccc3)[nH]c(=O)c21`, the IC50 was 2.9 µM.
Consider `CCCCN(C)c1nc2c(c(=O)[nH]1)[n+](C)cn2[C@@H]1O[C@H](COP(=O)([O-])O)[C@@H](O)[C@H]1O`, for which the IC50 is greater than 50 µM.
For the compound `C[n+]1cn([C@@H]2O[C@H](COP(=O)([O-])O)[C@@H](O)[C@H]2O)c2nc(NCc3ccc([N+](=O)[O-])cc3)[nH]c(=O)c21`, the IC50 was found to be 12.6 µM.
Consider `C[n+]1cn([C@@H]2O[C@H](COP(=O)([O-])O)[C@@H](O)[C@H]2O)c2nc(NCc3ccc(-c4ccccc4)cc3)[nH]c(=O)c21`, for which the IC50 was determined as 4.3 µM.
Take `C[n+]1cn([C@@H]2O[C@H](COP(=O)([O-])OP(=O)(O)OP(=O)(O)O)[C@@H](O)[C@H]2O)c2nc(N)[nH]c(=O)c21`: the IC50 was 6.1 µM.
Same read-out and setting: under `COc1ccc(CNc2nc3c(c(=O)[nH]2)[n+](C)cn3[C@@H]2O[C@H](COP(=O)([O-])O)[C@@H](O)[C@H]2O)cc1` stands 0.9 µM.
Regarding `CN(Cc1ccccc1)c1nc2c(c(=O)[nH]1)[n+](C)cn2[C@@H]1O[C@H](COP(=O)([O-])O)[C@@H](O)[C@H]1O`, the concentration for half-maximal inhibition (IC50) is greater than 50 µM.
Same read-out and setting: under `C[n+]1cn([C@@H]2O[C@H](COP(=O)([O-])O)[C@@H](O)[C@H]2O)c2nc(N)[nH]c(=O)c21` stands greater than 50 µM; under `CC(C)CN(C)c1nc2c(c(=O)[nH]1)[n+](C)cn2[C@@H]1O[C@H](COP(=O)([O-])O)[C@@H](O)[C@H]1O`, greater than 50 µM.
On the same count and under the same terms, the same measure for `CCN(C)c1nc2c(c(=O)[nH]1)[n+](C)cn2[C@@H]1O[C@H](COP(=O)([O-])O)[C@@H](O)[C@H]1O`: 13.9 µM; for `C[n+]1cn([C@@H]2O[C@H](COP(=O)([O-])O)[C@@H](O)[C@H]2O)c2nc(N(Cc3ccccc3)Cc3ccccc3)[nH]c(=O)c21`: greater than 50 µM.
Take `CCN(CC)c1nc2c(c(=O)[nH]1)[n+](C)cn2[C@@H]1O[C@H](COP(=O)([O-])O)[C@@H](O)[C@H]1O`: the IC50 is greater than 50 µM.
Still for that read-out and setting: under `C[n+]1cn([C@@H]2O[C@H](COP(=O)([O-])O)[C@@H](O)[C@H]2O)c2nc(NCc3ccc(Cl)cc3)[nH]c(=O)c21` stands 3.8 µM; under `CCCCNc1nc2c(c(=O)[nH]1)[n+](C)cn2[C@@H]1O[C@H](COP(=O)([O-])O)[C@@H](O)[C@H]1O`, 3.9 µM.

Broadly, the IC50 is the concentration that gives 50% inhibition.
